Experiment: RP, Thermo Scientific Acclaim RSLC 120 C18, 100 × 2.1 mm, 2.2 µm, 30 °C, 0.2 mL/min, estimated dead time 1.1 min; A: 90% water + 10% methanol + 0.01% formic acid + 5 mM ammonium formate, pH 3.61; B: methanol + 0.01% formic acid + 5 mM ammonium formate, pH 3.61; gradient (min/%B) 0/1 1/1 2/39 13/99.9 15/99.9 15.1/1 20.1/1
Details: stereoisomer not certain

Structure (SMILES) | LC retention time [min]
O=C(Nc1ccc([N+](=O)[O-])cc1Cl)c1cc(Cl)ccc1O [Niclosamide] | 12.6
O=C(O)COCC[N+]1([O-])CCN(C(c2ccccc2)c2ccc(Cl)cc2)CC1 (stereo unspecified) [Cetirizine-N-Oxide] | 9.13
Cc1cc(=O)[nH]c(C(C)C)n1 [Pyrimidinol] | 4.49
CC(O)(C(N)=O)c1ccccc1 (stereo unspecified) [M-144] | 12.9
CC(C)(C)C(=O)C(Oc1ccc(Cl)cc1)n1ccnc1 (stereo unspecified) [Climbazole] | 10.1
CS(=O)(=O)NC(=O)c1cc(Oc2ccc(C(F)(F)F)cc2Cl)ccc1[N+](=O)[O-] [Fomesafen] | 9.01
O=S(=O)(O)NC1CCCCC1 [Cyclamic acid] | 6.99
Cc1cccc(C)c1N(Cn1cccn1)C(=O)C(=O)O [Metazachlor OA] | 5.09
CCOC(=O)CSc1nc(C(C)(C)C)nn1C(=O)N(C)C [Triazamate] | 6.38
CCOP(=S)(OCC)Oc1cc(C)nc(C(C)C)n1 [Diazinon] | 11
Cc1nnc2n1-c1ccc(Cl)cc1C(c1ccccc1)=NC2O (stereo unspecified) [Alprazolam-Hydroxy] | 7.81
CC1CC2C(C(O)CC3(C)C2CCC3(O)C(=O)CO)C2(C)C=CC(=O)C=C12 (stereo unspecified) [Prednisolone-Methyl] | 8.75
CCCCCn1cc(C(=O)c2ccc(OC)c3ccccc23)c2ccccc21 [JWH-081] | 12.7
O=C(O)c1ccccc1C(=O)Nc1cccc2ccccc12 [Naptalam (N-1-Naphthylphthalamic acid)] | 6.75
CN(C)CCOC(c1ccccc1)c1ccccc1 [Diphenhydramine] | 6.63
CN(C)S(=O)(=O)N(SC(F)(Cl)Cl)c1ccccc1 [Dichlofluanid] | 10
CN1CCc2cccc3c2C1Cc1ccc(O)c(O)c1-3 (stereo unspecified) [Apomorphine] | 4.28
CC(=O)c1ccc2c(c1)N(CCCN(C)C)c1ccccc1S2 [Acepromazine] | 7.47
CCCCCn1cc(C(=O)Cc2ccccc2OC)c2ccccc21 [JWH-250] | 11.8
CCCCCn1cc(C(=O)c2ccc(OC)cc2)c2ccccc21 [RCS-4] | 11.8
CC(C)(C)NCC(O)COc1cccc2c1CCCC2=O (stereo unspecified) [Levobunolol] | 4.84
CN(CC=CC#CC(C)(C)C)Cc1cccc2ccccc12 [Terbinafine] | 11

Structure (SMILES) | LC retention time [min]
CCc1cc(OC)c(CCN)cc1OC [2C-E] | 6.48
CC(=O)N(CC(O)CN(C(C)=O)c1c(I)c(C(=O)NCC(O)CO)c(I)c(C(=O)NCC(O)CO)c1I)c1c(I)c(C(=O)NCC(O)CO)c(I)c(C(=O)NCC(O)CO)c1I (stereo unspecified) [Iodixanol] | 3.56
CN(C)CCOC1=Cc2ccccc2Sc2ccc(Cl)cc21 [Zotepine] | 9.04
CC(C)C(Nc1ccc(C(F)(F)F)cc1Cl)C(=O)OC(C#N)c1cccc(Oc2ccccc2)c1 (stereo unspecified) [Fluvalinate (tau-)] | 13.5
CCCC(NC)C(=O)c1ccccc1 (stereo unspecified) [Pentedrone] | 4.89
Cc1ccc(N=Nc2c(O)ccc3ccccc23)c(C)c1 [Sudan II] | 14.9
CCNC(C)Cc1ccc2c(c1)OCO2 (stereo unspecified) [MDEA] | 4.39
COc1ccc(CCN)cc1OC [DMPEA] | 3.53
CN1C2CC(OC(=O)C(CO)c3ccccc3)CC1C1OC12 (stereo unspecified) [Scopolamine] | 3.83
CCOc1ccc(NC(=O)OC(C)C)cc1OCC [Diethofencarb] | 9.04
c1coc(-c2nc3ccccc3[nH]2)c1 [Fuberidazole] | 6.48
CON(C)C(=O)Nc1ccc(Cl)cc1 [Monolinuron] | 7.76
CCCCCCCCCC[N+](C)(C)CCCCCCCCCC [Didecyldimethylammonium (DADMAC (C10:C10))] | 12.6
CN1CCN(C2=Nc3ccccc3Sc3ccc(Cl)cc32)CC1 [Clothiapine] | 8.96
CC(Cc1ccccc1)NCCC(c1ccccc1)c1ccccc1 (stereo unspecified) [Prenylamine] | 8.89
CN(C)c1ccccc1 [Dimethylanilin (N.N-)] | 6.26
CCC12CCCN3CCc4c(n(c5ccccc45)C(O)(C(=O)OC)C1)C32 (stereo unspecified) [Vincamine] | 5.04
CN1CCCC1=O [N-Methyl-2-pyrrolidone] | 3.1
Nc1ccc(S(=O)(=O)c2ccc(N)cc2)cc1 [Dapsone] | 4.13
CCCCCCCCCCCCCCCC[N+](C)(C)C [Hexadecyltrimethylammonium] | 12.9
CCS(=O)(=O)CCSP(=O)(OC)OC [Demeton-S-methylsulfone] | 4.15
CCNc1nc(Cl)nc(NC(C)(C)C)n1 [Terbuthylazine] | 9.36

Structure (SMILES) | LC retention time [min]
COC(=O)C1C2CC3c4[nH]c5cc(OC)ccc5c4CCN3CC2CC(OC(=O)c2cc(OC)c(OC)c(OC)c2)C1OC (stereo unspecified) [Reserpine] | 8.47
CC(C)(C)C(NC(=O)c1nn(CCCCCF)c2ccccc12)C(N)=O (stereo unspecified) [ADB-PINACA-5F] | 9.86
CCCC(C(=O)c1ccccc1)N1CCCC1 (stereo not drawn) [PVP- Alpha] | 5.08
Cc1c(N)c(=O)n(-c2ccccc2)n1C [Antipyrine-4-Amino (4-AAP)] | 4.69
CC1(C)CC1C(=O)NC(=CCCCCSCC(N)C(=O)O)C(=O)O (stereo unspecified) [Cilastatin] | 4.88
COc1ccc(C(=CC(=O)N2CCOCC2)c2ccc(Cl)cc2)cc1OC [Dimethomorph] | 9.22
CCC(CC)(CNC(=O)CCCO)c1cccc(OC)c1 [Embutramide] | 8.98
CN1CSC(=S)N(C)C1 [Dazomet] | 3.97
c1ccc2c(c1)Cc1ccccc1N1CCNCC21 (stereo unspecified) [Mianserine-Nor] | 6.86
CCCCn1cc(C(=O)c2cccc3ccccc23)c2cc(O)ccc21 [JWH-073-M-5-OH-Ind] | 11.3
CCCCOC(=O)C(C)Oc1ccc(Oc2ccc(C(F)(F)F)cn2)cc1 (stereo unspecified) [Fluazifop-p-butyl] | 12
c1cc2c(cc1CN1CCNCC1)OCO2 [Piperazine -1-Piperonyl] | 4.22
CN(C)C1C(=O)C(C(N)=O)=C(O)C2(O)C(=O)C3=C(O)c4c(O)ccc(Cl)c4C(C)(O)C3CC12 (stereo unspecified) [Chlortetracycline] | 4.5
O=C1CN=C(c2ccccc2Cl)c2cc(Cl)ccc2N1 [Delorazepam] | 8.81
NS(=O)(=O)c1cc2c(cc1Cl)NCNS2(=O)=O [Hydrochlorothiazide (NH4)] | 3.24
O=C1N(CCN2CCCCC2)C(=O)C(c2ccccc2)(N2CCCCC2)C(=O)N1CCN1CCCCC1 [Barverin] | 7.64
CN(C)CCc1ccc(O)cc1 [Hordenine] | 2.28
C=CCN1CCC23c4c5ccc(O)c4OC2C(=O)CCC3(O)C1C5 (stereo unspecified) [Naloxone] | 3.44
COc1cccc(C2(O)CCCCC2C[N+](C)(C)[O-])c1 (stereo unspecified) [Tramadol-N-oxide] | 5.24
CC(CC(C#N)(c1ccccc1)C(C)C)N(C)C (stereo unspecified) [Isoaminile] | 5.96
CCOc1ccc(C(C)(C)COCc2cccc(Oc3ccccc3)c2)cc1 [Etofenprox] | 14.1
CCOc1cc(Oc2ccc(C(F)(F)F)cc2Cl)ccc1[N+](=O)[O-] [Oxyfluorfen] | 12.1

Structure (SMILES) | LC retention time [min]
Cn1sc(Cl)cc1=O [CMI (5-Chloro-2-methyl-4-isothiazolin-3-on)] | 4.51
CCOC(=O)c1ccccc1S(=O)(=O)NC(=O)Nc1nc(Cl)cc(OC)n1 [Chlorimuronethyl] | 9.3
COP(=O)(OC)OC(C)=CC(=O)OC(C)c1ccccc1 (stereo unspecified) [Crotoxyphos] | 9.39
CCCCCn1cc(C(=O)c2cccc3ccccc23)cc1-c1ccccc1C [JWH-370] | 13.4
CCCN(CCC)CCc1cccc2c1CC(=O)N2 [Ropinirole] | 3.98
NN1CC(=O)N2C(Cc3c([nH]c4ccccc34)C2c2ccc3c(c2)OCO3)C1=O (stereo unspecified) [Tadalafil-Amino] | 7.84
COC(=O)C(C)N(C(=O)c1ccco1)c1c(C)cccc1C (stereo unspecified) [Furalaxyl] | 8.99
CN1CC(=O)N2C(Cc3c([nH]c4ccccc34)C2c2ccc3c(c2)OCO3)C1=O (stereo unspecified) [Tadalafil] | 8.26
CCN(CC)CC(=O)Nc1c(C)cccc1C(=O)OC [Tolycaine] | 4.59
CCOc1ccc2c(c1)C(C)=CC(C)(C)N2 [Ethoxyquin] | 10.1
O=C(O)CCCCC1SCC2NC(=O)NC21 (stereo unspecified) [Biotin] | 4.44
CCCCCn1cc(C(=O)c2cccc3ccccc23)c2c(O)cccc21 [JWH-018-M-4-OH-Ind] | 12.5
CCCCc1ncc(C=C(Cc2cccs2)C(=O)O)n1Cc1ccc(C(=O)O)cc1 [Eprosartan] | 7.49
CC1(C)C(C(=O)c2nn(CCCCCF)c3ccccc23)C1(C)C [FAB-144] | 12.7
COc1cc(CCN)c(OC)cc1Br [2C-B] | 5.56
CN=C1CN(O)C(c2ccccc2)=c2cc(Cl)ccc2=N1 [Chlordiazepoxide] | 8.79
COc1ccccc1N1CCN(CCCC(=O)c2ccc(F)cc2)CC1 [Fluanisone] | 6.41
CC1CC2C3CC(F)C4=CC(=O)C=CC4(C)C3C(O)CC2(C)C1(O)C(=O)CO (stereo unspecified) [Paramethasone] | 8.69
Cc1cc(NS(=O)(=O)c2ccc(N)cc2)no1 [Sulfamethoxazole] | 4.6
COP(N)(=S)Oc1ccccc1C(=O)OC(C)C (stereo unspecified) [Isocarbophos] | 8.32
